Data published in PubChem BioAssay (NCI).
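A five-concentration, 48-hour dose response in 96-well plates underlies each endpoint, interpolated linearly between surrounding concentrations. GI50 = concentration required for 50% inhibition of growth. TGI: total growth inhibition.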

Assays:
Assay in all cases: NCI tumour cell line growth inhibition, 48 h
A549 NSCLC = test system: A549 NSCLC
HCT-116 colon = test system: HCT-116 colon
IGROV1 ovarian = test system: IGROV1 ovarian
LOX IMVI melanoma = test system: LOX IMVI melanoma
NCI-H460 lung = test system: NCI-H460 lung
OVCAR-5 ovarian = test system: OVCAR-5 ovarian
RPMI-8226 leukemia = test system: RPMI-8226 leukemia
RXF 393 renal = test system: RXF 393 renal
SW-620 colon = test system: SW-620 colon
MCF7 breast = test system: MCF7 breast

SMILES	TGI (A549 NSCLC) [µM]	TGI (HCT-116 colon) [µM]	TGI (IGROV1 ovarian) [µM]	TGI (LOX IMVI melanoma) [µM]	TGI (NCI-H460 lung) [µM]	TGI (OVCAR-5 ovarian) [µM]	TGI (RPMI-8226 leukemia) [µM]	TGI (RXF 393 renal) [µM]	TGI (SW-620 colon) [µM]	TGI (MCF7 breast) [µM]	GI50 (A549 NSCLC) [µM]	GI50 (HCT-116 colon) [µM]	GI50 (IGROV1 ovarian) [µM]	GI50 (RPMI-8226 leukemia) [µM]	GI50 (SW-620 colon) [µM]	GI50 (MCF7 breast) [µM]	GI50 (NCI-H460 lung) [µM]	GI50 (OVCAR-5 ovarian) [µM]	GI50 (LOX IMVI melanoma) [µM]
O=C1C=C2CCC[C@H]3OC(=O)C[C@@]23CC1	> 100	> 100	> 100	> 100	> 100	> 100	> 100	> 100	> 100										
Cc1c(OCc2ccccc2)c(=O)ccn1CCc1c[nH]c2ccccc12	> 100	> 100	> 100	> 100	> 100	> 100	59.3		> 100	42.9									
CC(C)(C)C(=O)OCC1OC(N=[N+]=[N-])C(OC(=O)C(C)(C)C)C(OC(=O)C(C)(C)C)C1OC(=O)C(C)(C)C (stereo not drawn)	> 100	> 100	> 100		> 100	> 100	> 100	> 100	> 100										
CCCC1C(=O)Nc2cccc3ncn(c23)C1=O (stereo not drawn)	> 100	> 100	> 100		> 100	> 100	> 100	> 100	> 100	> 100									
CCOC(=O)c1c(C)nc2c(c1-c1cn(-c3ccccc3)nc1-c1ccccc1)C(=O)c1ccccc1-2	> 100	> 100	> 100	> 100		> 100		> 100	> 100										
COc1ccccc1N=Nc1c(O)c(S(=O)(=O)O)cc2cc(S(=O)(=O)O)ccc12	> 100	> 100	> 100	> 100		> 100	> 100	> 100	> 100										
CN1N=C(c2ccncc2)OC1c1cccc(C(F)(F)F)c1 (stereo not drawn)	> 100	> 100	> 100	> 100	> 100	> 100	> 100	> 100	> 100										
O=C(Sc1c(-c2ccccc2)c(=O)n(-c2ccccc2)c(=S)n1-c1ccccc1)c1cccs1	> 100	> 100	> 100	61.2	> 100	> 100	> 100		> 100	> 100									
CC1(C)CC2(C)CC1CC2(O)c1ccccc1 (stereo not drawn)	> 100	> 100	> 100		> 100	> 100		> 100	> 100										
Cn1c([C@H](C#N)C(=O)c2cc(O)ccc2[N+](=O)[O-])nc2ccccc21	> 100	> 100	> 100	> 100	> 100	> 100	> 100			> 100									
CC(=O)NNc1nc(C)c(C(=O)NNC(=O)C(=O)Nc2cccc(C(C)=O)c2)s1	> 100	> 100	60.7	39.1	33.2	> 100	> 100	30	> 100										
CS(=O)(=O)c1nc(-c2cc3c(c(S(C)(=O)=O)n2)CCC3)cc2c1CCCC2	> 100	> 100	34.8	49.8		> 100	> 100	40.5	> 100										
N#C/C(=C\c1ccc([N+](=O)[O-])s1)c1nc2cc(Cl)ccc2s1	> 100	1.27	4.52				3.26		2.09		3.12	0.329	0.94	0.675	0.354				
CC(C)OP(=O)(OC(C)C)C1=NN(c2ccc([N+](=O)[O-])cc2)C(P(=O)(OC(C)C)OC(C)C)=NN1c1ccc([N+](=O)[O-])cc1	> 100	> 100	> 100	> 100	> 100	> 100	> 100	> 100	> 100										
C=C1[C@@](C)([C@@H]2CCCS2)[C@H]2C(C)=C[C@]1(C)n1c(=O)n(-c3ccccc3)c(=O)n12	> 100	> 100	> 100		> 100	> 100	> 100		> 100	> 100									
COc1ccc2nc3c(c(NCCCN(C)C)c2c1)CCCC3	49.9	17.2	47	25.8	24.3	35.6	27.2	29.5	51.5										
CC(=O)NC1=C(NCCCl)C(=O)c2ccccc2C1=O	> 100	48.1	> 100		> 100	> 100	> 100	69.8	> 100	> 100									

SMILES	TGI (A549 NSCLC) [µM]	TGI (HCT-116 colon) [µM]	TGI (IGROV1 ovarian) [µM]	TGI (LOX IMVI melanoma) [µM]	TGI (NCI-H460 lung) [µM]	TGI (OVCAR-5 ovarian) [µM]	TGI (RPMI-8226 leukemia) [µM]	TGI (RXF 393 renal) [µM]	TGI (SW-620 colon) [µM]	TGI (MCF7 breast) [µM]	GI50 (A549 NSCLC) [µM]	GI50 (HCT-116 colon) [µM]	GI50 (IGROV1 ovarian) [µM]	GI50 (RPMI-8226 leukemia) [µM]	GI50 (SW-620 colon) [µM]	GI50 (MCF7 breast) [µM]	GI50 (NCI-H460 lung) [µM]	GI50 (OVCAR-5 ovarian) [µM]	GI50 (LOX IMVI melanoma) [µM]
Cc1ccc(-c2nnc(CCCCCCCCc3nnc(-c4ccc(C)cc4O)n3N)n2N)c(O)c1	> 100	> 100	> 100	> 100	> 100	> 100	> 100		> 100	> 100									
Cc1ccnc2nc(N)ccc12	> 100	> 100	> 100		> 100	> 100	> 100	> 100	> 100										
COc1ccc(/C=C/C(=O)c2ccc(-n3cc(CN4CCN(c5cc6c(cc5F)c(=O)c(C(=O)O)cn6C5CC5)CC4)nn3)cc2)cc1OC	> 100				6.66	25.7	4.46		6.98	> 100	2.98			0.401	1.37	0.396	2.4	3.7	
CC(=O)OC1C2CCC3C(C)(O)C4CC(O)C(C)(C)C4(O)C(O)CC13CC2(C)O (stereo not drawn)	> 100	> 100	> 100	> 100		> 100	> 100			> 100									
Cc1ccc(Sc2ccccc2[N+](=O)[O-])cc1	> 100	> 100	> 100	> 100	> 100	> 100	> 100	59.8	> 100										
COCC1OC(S(=O)(=O)c2ccccc2)C(O)C(OC)C1OC (stereo not drawn)	> 100	> 100	> 100	> 100	> 100	> 100		> 100	> 100	> 100									
CC1(C)C(CCO)CC1n1ccc(=O)[nH]c1=O (stereo not drawn)	> 100	> 100		> 100		> 100		> 100	> 100	> 100									
C=C(C)C1CC/C(C)=C/CC[C@]2(C)O[C@@H]2CCC2=CC1OC2=O (stereo partly drawn)	> 100	> 100	> 100	48.2	> 100	> 100	22.2			> 100	23.4	27.6	50.4	10.5		> 100	> 100	0.635	15.1
CCOC(=O)c1cc2c(OCc3ccccc3)c(OC)cc3c2c(n1)N(c1ccc(OC)cc1)C(C)C3 (stereo not drawn)	> 50	> 50	> 50	> 50	> 50	> 50	> 50	> 50	> 50										
Cc1ccc(-n2cc(-c3ccc(Cl)cc3)c3c(NN)ncnc32)cc1	15.3	9.1	11.2	19.7	14.1	43.2		7.31	26.2										
O=c1c2ccccc2nc(-c2ccccc2)n1NC(=S)Nc1ccc(Cl)cc1	> 100	> 100	> 100	> 100	> 100	> 100	> 100	> 100	> 100										
CN(C(=O)c1ccc2c(c1)sc1c(=O)n(C)c3ccccc3c12)c1ccccc1	> 100	> 100	> 100	> 100	> 100	> 100		> 100	> 100	> 100									
CCC(COC(=O)CC[C@@H](NC(=O)C(C)NC(=O)C(C)OC1C(O)C(CO)OC(OCc2ccccc2)C1NC(C)=O)C(N)=O)NC1c2ccccc2Nc2cccc([N+](=O)[O-])c21 (stereo partly drawn)	> 100	> 100	> 100	> 100	> 100	> 100	> 100	84.6	> 100										
Cc1cn(C2CC(CCCO)C(CO)O2)c(=O)[nH]c1=O (stereo not drawn)	> 100	> 100	> 100	> 100	> 100	> 100	> 100	> 100	> 100										
O=C1CC(C(CC(=O)c2ccccc2)c2ccccc2)C(=O)c2ccccc2N1 (stereo not drawn)	> 100	> 100	> 100	> 100	> 100	> 100	> 100		> 100	80.1									
COc1cccc(/C(Cl)=C(\C=O)c2cccc(OC)c2)c1	40.8	15	47.8	20.3	26.4	38	45.1	25.1	19.5										
